Laboratory results as given in patent US10973863B2, “Method for regulating, preventing and/or treating pulmonary injury” (SINPHAR PHARMACEUTICAL CO., LTD., priority 2017, dated 2021).

Key:
[1] = system: MMP-9; assay: Gelatin zymography: LPS-activated active expression of MMP-9 in NR8383 cells; type: cell-based, rat; details: LPS 1 μg/mL, 24 hours
Description: As indicated above, when an inflammatory response occurs in animal's pulmonary tissue, the active inflammatory cells will secret MMPs that will destroy the pulmonary tissue structure, cause more serious pulmonary injury, and lead to the decrement in or the loss of pulmonary functions. […]
Thereafter, the medium of each group was collected and respectively subjected to the following procedures. A 10% polyacrylamide gel containing 0.2% gelatin was used to carry out the sodium dodecyl sulfate polyacrylamide gel electrophoresis (SDS-PAGE). After the electrophoresis was completed, the gel was sequentially soaked in 2.5% Triton X-100 solution for 90 minutes to remove SDS, soaked in distillation-distillation water (ddH2O) for 30 minutes, and placed in a reaction solution (50 mM Tris-HCl buffer containing 10 mM CaCl2 and 0.02% NaN3) at a temperature of 37° C. for 18 hours. After the foregoing reaction was completed, the gel was stained by a Coomassie blue staining solution, and the image of stained gel was taken and subjected to an image analysis. The image intensity (the image intensity was calculated based on the size of area and the shade of color) of highlight band (i.e., the gelatin in this area was degraded by MMPs, wherein the area locating around 95 kD molecular weight) on the gel of each group can reflect the active expression of MMP-9 of rat alveolar macrophage NR8383 cells under different conditions (the relative active expression of MMP-9 was calculated by serving the results of the blank group as 0% and serving that of the control group as 100%).
Rat alveolar macrophage NR8383 cells were divided into twenty-eight groups and separately cultivated with the following media for 24 hours: • (1) Blank group: a macrophage growth medium; • (2) Control group: a macrophage growth medium containing 1 μg/mL LPS; • (3) Positive control group: a macrophage growth medium containing 1 μg/mL LPS and 5 μM Prednisolone (a type of corticosteroid; abbreviated as “Pred”; purchased from Sigma-Aldrich); • (4) Extract C (including five sub-groups): a macrophage growth medium containing 1 μg/mL LPS and the extract C provided by [preparation example A-3-2], wherein the extract C is present in the five sub-groups at a concentration of […] respectively; • (5) Extract D (including five sub-groups): a macrophage growth medium containing 1 μg/mL UPS and the extract D provided by [preparation example A-4-2], wherein the extract D is present in the five sub-groups at a concentration of 0.78, 1.56, 3.13, 6.25 and 12.5 respectively; • (6) Extract E (including five sub-groups): a macrophage growth medium containing 1 μg/mL LPS and the extract E provided from [preparation example A-4-3], wherein the extract E is present in the five sub-groups at a concentration of 0.78, 1.56, 3.13, […], and 12.5 respectively; • (7) DATA group (including five sub-groups): a macrophage growth medium containing 1 μg/mL LPS and the dehydrotrametenolic acid (DTTA) provided by [preparation example C-1], wherein the dehydrotrametenolic acid (DTTA) is present in the five sub-groups at a concentration of 0.39, 0.78, 1.56, 3.13 and 6.25 μg/mL respectively; and • (8) PAA group (including live sub-groups): a macrophage growth medium containing 1 μg/mL LPS and the poricoic acid A (PAA) provided from [preparation example C-1], wherein the poricoic acid A (PAA) is present in the five sub-groups at a concentration of 6.25, 12.5, 25, 50 and 100 respectively.
Thereafter, the medium of each group was collected and analyzed by the analyzing procedures same as that of (1-1).

[2] = system: TGFβ-induced intracellular accumulation of collagen in myofibroblast WI38 cells; assay: Picrosirius red staining: TGFβ-induced collagen accumulation in WI38 cells; type: cell-based; details: 1 ng/mL TGF-β
Description: As indicated above, the hyperactive expression of MMPs will cause pulmonary injury. Under the most circumstances, the response mechanisms in animals will activate, for example, macrophages will secret TGF-β and TGF-β which can promote the lung fibroblasts to secret collagen, so that the damaged tissues can be recovered. However, the hypersecretion of collagen will also lead to lung fibrosis. To investigate whether FU-LING extracts and its active ingredients are effective in regulating, protecting and/or treating the pulmonary injury-related diseases such as lung fibrosis or not, the Picrosirius red (PSR) staining was conducted as a semi-quantification of collagen, so that the inhibitory rate of FU-LING extract and its active ingredients on the TGFβ-induced intracellular accumulation of collagen in myofibroblast WI38 cells can be determined.
Myofibroblast WI38 cells (purchased from ATCC, product no. CCL75™) were divided into ten groups and separately cultivated with the following media for 48 hours:
(1) Blank group: a myolibroblast growth medium;
(2) Control group: a myofibroblast growth medium containing 1 ng/mL TGF-β (purchased from R&D system);
(3) Positive control group: a myofibroblast growth medium containing 1 ng/mL TGF-β and 200 μg/mL Pirfenidone (abbreviated as “Pir”; purchased from Sigma-Aldrich);
(4) Extract A (including four sub-groups): a myofibroblast growth medium containing 1 ng/mL TGF-β and the extract A provided by [Preparation example A-2-2], wherein the extract A is present in the four sub-groups at a concentration of 12.5, 25, 50 and 100 μg/mL respectively; and
(5) Extract B (including three sub-groups): a myofibroblast growth medium containing 1 ng/ml, TGF-β and the extract B provided by [Preparation example A-2-3], wherein the extract B is present in the […] at a concentration of 12.5, 25 and 50 μg/mL respectively.
Thereafter, the media were replaced by methanol to fix the cells at a temperature of −20° C. for 1 to 2 hours. After that, the cells were washed with PBS, and then stained with 0.1% PSR staining agent (purchased from Sigma-Aldrich) at room temperature for 4 hours. The stained cells were washed with 0.1% acetic acid, and then lysed with 0.1N sodium hydroxide to provide a lysate. The OD540 (i.e., the absorbance at a wavelength of 540 nm) of the lysate was measured. OD540 value of each group represents the content of collagen in each group, reflecting the content of collagen in fibroblast WI38 cells under different circumstances (the relative content of collagen in each group was calculated by serving the result of blank group as 0% and serving the result of control group as 100%).
Myofibroblast WI38 cells were divided into twenty-eight groups and separately cultivated with the following media for 24 hours:
(1) Blank group: a myofibroblast growth medium;
(3) Positive control group; a myofibroblast growth medium containing 1 ng/mL TGF-β and 200 μg/mL Pirfenidone (abbreviated as “Pir”; purchased from Sigma-Aldrich);
(4) Extract C group (including five sub-groups): a myofibroblast growth medium containing 1 ng/mL TGF-β and the extract C provided by [preparation example A-3-2], wherein the extract C is present in the five sub-groups at a concentration of […], 6.25 and 12.5 μg/mL respectively;
(5) Extract D group (including five sub-groups): a myofibroblast growth medium containing 1 ng/mL TGF-β and the extract D provided by [preparation example A-4-2], wherein the extract D is present in the five sub-groups at a concentration of 0.78, 1.56, 3.13, 6.25 and 12.5 μg/mL respectively;
(6) Extract E group (including five sub-groups): a myofibroblast growth medium containing 1 ng/mL TGF-β and the extract E provided by [preparation example A-4-3], wherein the extract E is present in the five sub-groups at a concentration of 0.78, 1.56, 3.13, 6.25 and 12.5 μg/mL respectively; […]

C[C@@H]1C[C@H]2[C@@H]3CCC4=CC(=O)C=C[C@]4(C)[C@@]3(F)[C@@H](O)C[C@]2(C)[C@@]1(O)C(=O)CO [Dex, dexamethasone, reference compound]
Relative active expression of MMP-9 (%) ([1]; Table 4, Dex 1 μM, blank 0%, control 100%): 100%

C[C@]12C=CC(=O)C=C1CC[C@@H]1[C@@H]2[C@@H](O)C[C@@]2(C)[C@H]1CC[C@]2(O)C(=O)CO [Pred, Prednisolone, reference compound]
Effect on inhibiting the 1 μg/mL LPS-induced increment in active expression of MMP-9 (in words) ([1]; all tested concentrations): cannot inhibit
Relative active expression of MMP-9 (%) ([1]; Table 5, Pred 5 μM, blank 0%, control 100%): 97%

Cc1ccc(=O)n(-c2ccccc2)c1 [Pir, Pirfenidone, reference compound]
Relative content of collagen (%) ([2]; Table 6, Pir 200 μg/mL, 48 hours, blank 0%, control 100%): 69%
Relative content of collagen (%) ([2]; Table 7, Pir 200 μg/mL, 24 hours, blank 0%, control 100%): 0%

CC(C)=CCC[C@@H](C(=O)O)[C@H]1CC[C@@]2(C)C3=CC[C@H]4C(C)(C)[C@@H](O)CC[C@]4(C)C3=CC[C@]12C [DTTA, dehydrotrametenolic acid]
Relative active expression of MMP-9 (%) ([1]; Table 5, 0.39 μg/mL): 91%
Relative active expression of MMP-9 (%) ([1]; Table 5, 0.78 μg/mL): 99%
Relative active expression of MMP-9 (%) ([1]; Table 5, 1.56 μg/mL): 79%
Relative active expression of MMP-9 (%) ([1]; Table 5, 3.13 μg/mL): 72%
Relative active expression of MMP-9 (%) ([1]; Table 5, 6.25 μg/mL): 74%
Relative content of collagen (%) ([2]; Table 7, 0.39 μg/mL, 24 hours): 25%
Relative content of collagen (%) ([2]; Table 7, 0.78 μg/mL, 24 hours): 100%
Relative content of collagen (%) ([2]; Table 7, 1.56 μg/mL, 24 hours): 25%
Relative content of collagen (%) ([2]; Table 7, 3.13 μg/mL, 24 hours): 53%
Relative content of collagen (%) ([2]; Table 7, 6.25 μg/mL, 24 hours): 70%

C=C(CC[C@@H](C(=O)O)[C@H]1[C@H](O)C[C@@]2(C)C3=CC[C@H]4C(C)(C)[C@@H](O)CC[C@]4(C)C3=CC[C@]12C)C(C)C [DTA, dehydrotumulosic acid]
Relative active expression of MMP-9 (%) ([1]; Table 4, 3.13 μg/mL): 79.7%
Relative active expression of MMP-9 (%) ([1]; Table 4, 6.25 μg/mL): 83.9%
Relative active expression of MMP-9 (%) ([1]; Table 4, 12.5 μg/mL): 80.7%
